The values below are quoted from earlier work in patent publication US11065260B1, “Method of treatment for reducing pulmonary inflammation in a patient with pathogen infection using oral prostacyclin analog drugs” (priority 2020, dated 2021).

Data set [1] concerns COVID-19. Particulars: several small trials.
The conditions of data set [2]: patients with pulmonary hypertension and ARDS.
The conditions of data set [3]: human, in vivo, inhaled or intranasal.
For data set [4] the following is noted: in vivo, po.
The conditions of data set [5]: human, in vivo, po.
The conditions of data set [6]: within 1 hour, pH 7.4 phosphate buffer, optimal formulation.
The conditions of data set [7]: human, in vivo.
In another data set the test system is pulmonary inflammation. Particulars: several animal studies.
Data set [8] deals with COVID-19. Conditions: randomized clinical trial of 199 patients.

As to `CCN(CCO)CCCC(C)Nc1ccnc2cc(Cl)ccc12` (stereo not drawn) [hydroxychloroquine], in the data set on COVID-19 [1], the clinical results is reported as “mixed results”.

For orientation: half-life means the time in which the quantity being followed falls by half. Take `CC#CCC(C)[C@H](O)/C=C/[C@@H]1[C@H]2C/C(=C/CCCC(=O)O)C[C@H]2C[C@H]1O` (stereo partly drawn) [iloprost]: in the data set with human monocytes, the “production of interleukin IL-6” value is reported as “inhibit” and the “production of intracellular TNF-α” value is given as “inhibit”. The gas exchange entry in data set [2] was “improved”. Besides, in [3], the half-life was 20 to 30 min. Besides, the steady-state serum levels in data set [4] is on record as 260 pg/mL. Further, in the data set on T cells, the “IL-2 and RANKL” value is “increasing”; the “TNF-α production by T cells” value is “reducing”; the “number of T regulatory cells” value is listed as “reducing”. Further, in data set [5], the “adverse effects leading to discontinuation of dose escalation” value is “flushing and headache”; the bioavailable dose fraction entry is “highest”; the “duration of half-maximal serum levels (mean)” value was 2.4 h; the “duration of therapeutic serum levels” value was 2.1 to 5.0 h. Also, the “in vitro dissolution of the dose” value in [6] is 60%. Also, in data set [7], the contraindications entry is “no contraindications” and the side effects result is reported as “minimal side effects”. Further, the pulmonary inflammation entry in the data set on pulmonary inflammation was “reduce pulmonary inflammation”.

Turning to lopinavir-ritonavir, the clinical benefit entry in the data set on COVID-19 [8] is listed as “No benefit”.
